Data set [1] is described as follows: Surface tension (DuNuoy Tensiometer). The class given is physicochemical. The note with it: room temperature (23° C.).
A short description of data set [2]: Density (2.0 mL volumetric tube, weighing by difference). The class given is physicochemical. The note with it: 23° C. As to the method:
(§1) The densities of the ionic liquids or, more correctly, […] (used synonymously except as indicated otherwise explicitly or by context) was determined at 23° C. by placing 2.0 mL of the ionic liquid in a 2.0 mL volumetric tube and weighing by difference. The melting points of the ionic liquids were determined using a Perkin Elmer Pyris 1 Differential Scanning calorimeter (Boston, Mass.). Typical methods involved using a 10° C./min temperature ramp to determine and identify the first and second order thermal transitions. […] For solid compounds, the melting points were verified using a capillary melting point apparatus. Refractive index measurements were conducted at 23° C. using a Bausch & Lomb Abbe-3L refractometer.

The nature of data set [3]: Refractive index (Abbe-3L refractometer). Particulars: 23° C. The class given is physicochemical. As to the method: as §1
The nature of data set [4]: Solvation interaction parameters by inverse gas-liquid chromatography (Abraham solvation model). It counts as physicochemical. As to the method:
The preparation of the capillary columns for inverse gas-liquid chromatographic analysis was performed using a previously described procedure.^31 All capillary columns had efficiencies between 2100 to 2500 plates/meter. Characterization of the capillary columns and probe molecule descriptions are listed in supplemental information. Multiple linear regression analysis (MLRA) and statistical calculations were performed using the program Analyse-it (Microsoft, USA).
We have previously reported that the Abraham solvation model, a linear free energy approach that utilizes inverse gas-liquid chromatography to describe the solvation properties of a liquid, can be used to characterize room temperature ionic liquids.^31 Described by equation 1, the model provides the so-called “interaction parameters” (r, s, a, b, l) by using multiple linear regression analysis to fit the retention factor (k, determined chromatographically) to the solute descriptors (R2, π2^H, α2^H, β2^H, log L^16) for a wide variety of probe solute molecules. […] The solvation properties of four dicationic ionic liquids (see Table 4) were evaluated and the interaction parameters compared to those obtained for their traditional monocationic analogues 1-butyl-3-methylimidazolium and 1-butyl-1-methylpyrrolidinium ionic liquids.
Previously we characterized a large number of room temperature ionic liquids in terms of multiple solvation interactions using the solvation parameter model, shown in equation 3.^44 log k=c+rR2+sπ2^H+aα2^H+bβ2^H+l log L^16 [3] This approach utilizes inverse gas-liquid chromatography and allows the use of a large number of probe molecules to deconvolute solute retention in terms of the type and magnitude of individual solvation interactions. The solute descriptors (R2, π2^H, α2^H, β2^H, log L^16) from Equation 3 are obtained from the literature for many probe molecules containing a variety of functional groups.^45 The retention factor is determined chromatographically. The solute descriptors and retention factors are subjected to multiple linear regression analysis to obtain the interaction parameter coefficients (r, s, a, b, l), which ultimately characterize the stationary phase: r is the ability of the diionic liquid containing-stationary phase to interact with π and n electrons of the solute, s is a measure of the dipolarity/polarizability of the diionic liquid containing-stationary phase, a defines the diionic liquid containing-stationary phase hydrogen bond basicity, b is a measure of the hydrogen bond acidity, and/refers to the ability of the diionic liquid containing-stationary phase to separate adjacent members of a homologous series.^46
(§2) Test solutes used to determine interaction parameters and solvation thermodynamics were dissolved in dichloromethane. A Hewlett-Packard model 5890 gas chromatograph and a Hewlett-Packard 6890 series integrator were used for all separations. Split injection and flame ionization detection were utilized with injection and detection temperatures of 250° C. Helium was used as the carrier gas with a column inlet pressure of 3.1 psi and flow rate of 1.0 mL/min. Methane was used to determine the dead volume of the column. Multiple linear regression analysis and statistical calculations were performed using the program Analyze-it (Microsoft).

Data set [5] is described as follows: Solvation thermodynamics of probe molecules (van't Hoff plots, GC). The class given is physicochemical.
From the text: Solvation thermodynamics can be determined chromatographically by recognizing that the Gibbs free energy change, ΔG°, of a solute between the mobile phase and the stationary phase can be described by equation 1:
[formula] where k is the solute retention factor and Φ is the column phase ratio. An expression shown in equation 2 can then be derived and illustrates the dependence of enthalpy, ΔH°, and entropy, ΔS°, on the change of the retention factor with temperature:
[formula] A van't Hoff plot of ln k versus 1/T provides the entropy (intercept) and enthalpy (slope) and describes a solute's transfer from the gas phase to the ionic liquid stationary phase. In this work, the solvation thermodynamics were determined for seven different probe molecules, listed in Table D, on two cross-linked ionic liquid phases and one ionic liquid stationary phase. […] For each probe molecule on each stationary phase, three separate van't Hoff plots were constructed so that changes in the probe molecule retention factor could be used to provide an error for each thermodynamic parameter. The probe molecule retention factors were determined at six different temperatures to obtain the highest possible correlation coefficient (>0.989).
as §2

[6] abbreviates: probe 2-Chloroaniline, 40-100° C.
Where [7] appears, read: probe Ethyl Phenyl Ether, 35-75° C.

Where two headings read alike, the source gives them in different places.

Take `Cn1cc[n+](CCCCCCCCCCCC[n+]2ccn(C)c2)c1.F[B-](F)(F)F.F[B-](F)(F)F` [C12(mim)2-BF4, 1,12-di(3-methylimidazolium)dodecane di-tetrafluoroborate]: the “Miscibility with Heptane” value is listed as “Immiscible” and the “Miscibility with Water” value is listed as “Partially”. In data set [1], the “Surface Tension” value is recorded as 55.8 dynes/cm. Besides, the Density in data set [2] was determined as 1.26 g/mL. Besides, the “Refractive Index” value in data set [3] was found to be 1.503. Moreover, for the setting “listed as 15”, the “Miscibility with Water” value is “solubility of the salt in water decreases”.

As to `Cn1cc[n+](CCCCCCCCCCCC[n+]2ccn(C)c2)c1.O=S(=O)([N-]S(=O)(=O)C(F)(F)F)C(F)(F)F.O=S(=O)([N-]S(=O)(=O)C(F)(F)F)C(F)(F)F` [C12(mim)2-NTf2, 1,12-di(3-methylimidazolium)dodecane di-bis[(trifluoromethyl)sulfonyl]imidate], the “Miscibility with Heptane” value is “Immiscible” and the “Miscibility with Water” value is on record as “Immiscible”. Besides, in data set [1], the “Surface Tension” value is 42.3 dynes/cm. Moreover, the Density in data set [2] worked out at 1.40 g/mL. For the same compound, the “Refractive Index” value in data set [3] is 1.443.

Turning to `Cc1n(C)cc[n+]1CCCCCCCCC[n+]1ccn(C)c1C.O=S(=O)([N-]S(=O)(=O)C(F)(F)F)C(F)(F)F.O=S(=O)([N-]S(=O)(=O)C(F)(F)F)C(F)(F)F` [C9(m2im)2-NTf2, 1,9-di(2,3-dimethylimidazolium)nonane di-bis[(trifluoromethyl)sulfonyl]imidate], the “Miscibility with Heptane” value is recorded as “Immiscible” and the “Miscibility with Water” value is given as “Immiscible”. In addition, the “Surface Tension” value in data set [1] was found to be 43.5 dynes/cm. The Density in data set [2] is 1.47 g/mL. In data set [3], the “Refractive Index” value amounted to 1.448.

As for `CCCCn1cc[n+](CCCCCCCCC[n+]2ccn(CCCC)c2)c1.F[B-](F)(F)F.F[B-](F)(F)F` [C9(bim)2-BF4, 1,9-di(3-butylimidazolium)nonane di-tetrafluoroborate], the “Miscibility with Heptane” value is recorded as “Immiscible” and the “Miscibility with Water” value is given as “Partially”. Also, the “Surface Tension” value in data set [1] worked out at 50.4 dynes/cm. The compound further returned a Density in data set [2] of 1.20 g/mL. For the same compound, the “Refractive Index” value in data set [3] was determined as 1.503. In addition, the “Miscibility with Water” value (listed as 19) is “solubility of the salt in water decreases”.

The compound `CCCCCCCCC[n+]1ccn(C)c1.O=S(=O)([N-]S(=O)(=O)C(F)(F)F)C(F)(F)F` [nmim-NTf2] had a Density in data set [2] of 1.30 g/mL. The “Refractive Index” value in data set [3] stood at 1.434. Further, the “a (hydrogen bond basicity)” value in data set [4] (40° C.) is listed as 1.91; in data set [4] (70° C.) it was 1.57; in data set [4] (100° C.), 1.43. Further, the “b (hydrogen bond acidity)” value amounted to 0.36 in data set [4] (40° C.), 0.18 in data set [4] (70° C.) and 0.12 in data set [4] (100° C.). Besides, the “c (interaction parameter table, constant)” value in data set [4] (40° C.) is given as −2.98; in data set [4] (70° C.), −3.05; in data set [4] (100° C.) it was −3.47. The “l (dispersion forces)” value in data set [4] (40° C.) is on record as 0.75; in data set [4] (70° C.), 0.63; in data set [4] (100° C.), 0.60. In addition, the “r (interaction via nonbonding and π-electrons)” value in data set [4] (40° C.), in data set [4] (70° C.) and in data set [4] (100° C.) was 0 throughout. Further, the “s (dipolarity/polarizability)” value in data set [4] (40° C.) worked out at 1.62; in data set [4] (70° C.), 1.54; in data set [4] (100° C.) it was 1.52. The ΔHAV in data set [5] (probe 1-Octanol, 35-75° C.) was -14.168 kcal/mol; in data set [5] (setting [6]) it was -13.779 kcal/mol; in data set [5] (probe Decane, 35-75° C.), -10.848 kcal/mol; in data set [5] (setting [7]), -11.119 kcal/mol; in data set [5] (probe Fluorophenol, 40-100° C.), -11.497 kcal/mol; in data set [5] (probe Naphthalene, 40-100° C.), -12.856 kcal/mol. Further, the ΔHAV in data set [5] (probe Nitropropane, 27-50° C.) was -9.3236 kcal/mol. The ΔSAV in data set [5] (probe 1-Octanol, 35-75° C.) is listed as −151 J/mol*K; in data set [5] (setting [6]), −134 J/mol*K; in data set [5] (probe Decane, 35-75° C.), −127 J/mol*K; in data set [5] (setting [7]), −121 J/mol*K; in data set [5] (probe Fluorophenol, 40-100° C.), −121 J/mol*K; in data set [5] (probe Naphthalene, 40-100° C.), −127 J/mol*K. The compound further returned a ΔSAV in data set [5] (probe Nitropropane, 27-50° C.) of −109 J/mol*K. Further, the ΔG was -2.505 kcal/mol in data set [5] (probe 1-Octanol, 50° C.); -2.7892 kcal/mol in data set [5] (probe 2-Chloroaniline, 70° C.); -1.039 kcal/mol in data set [5] (probe Decane, 50° C.); -1.773 kcal/mol in data set [5] (probe Ethyl Phenyl Ether, 50° C.); -1.573 kcal/mol in data set [5] (probe Fluorophenol, 70° C.); -2.44 kcal/mol in data set [5] (probe Naphthalene, 70° C.). The ΔG in data set [5] (probe Nitropropane, 35° C.) is -1.296 kcal/mol.

As to `Cn1cc[n+](CCCCCCCCC[n+]2ccn(C)c2)c1.F[B-](F)(F)F.F[B-](F)(F)F` [C9(mim)2-BF4, 1,9-di(3-methylimidazolium)nonane di-tetrafluoroborate], the “Miscibility with Heptane” value is “Immiscible” and the “Miscibility with Water” value is given as “Miscible”. For the same compound, the “Surface Tension” value in data set [1] is recorded as 61.2 dynes/cm. The compound also gave a Density in data set [2] of 1.33 g/mL. For the same compound, the “Refractive Index” value in data set [3] is 1.469.

Regarding `Cc1n(C)cc[n+]1CCCCCCCCC[n+]1ccn(C)c1C.F[B-](F)(F)F.F[B-](F)(F)F` [C9(m2im)2-BF4, 1,9-di(2,3-dimethylimidazolium)nonane di-tetrafluoroborate], the “Miscibility with Heptane” value is “Immiscible” and the “Miscibility with Water” value is reported as “Miscible”. Besides, the “Surface Tension” value in data set [1] was found to be 58.1 dynes/cm. For the same compound, the Density in data set [2] worked out at 1.31 g/mL. Moreover, the “Refractive Index” value in data set [3] was determined as 1.456.

Regarding `F[P-](F)(F)(F)(F)F.F[P-](F)(F)(F)(F)F.c1ccc(Cn2cc[n+](CCCCCCCCCCCC[n+]3ccn(Cc4ccccc4)c3)c2)cc1` [C12(benzim)2-PF6, 1,12-di(3-benzylimidazolium)dodecane di-hexafluorophosphate], the “Miscibility with Heptane” value is given as “Immiscible” and the “Miscibility with Water” value is recorded as “Immiscible”. The “Surface Tension” value in data set [1] amounted to 47.4 dynes/cm. For the same compound, the Density in data set [2] came out at 1.27 g/mL. Moreover, in data set [3], the “Refractive Index” value was 1.484.

`Cn1cc[n+](CCCCCCCCCCCC[n+]2ccn(C)c2)c1.F[P-](F)(F)(F)(F)F.F[P-](F)(F)(F)(F)F` [C12(mim)2-PF6, 1,12-di(3-methylimidazolium)dodecane di-hexafluorophosphate]: the “Miscibility with Heptane” value is recorded as “Immiscible” and the “Miscibility with Water” value was “Immiscible”. Also, the “Surface Tension” value in data set [1] was determined as 53.4 dynes/cm. The Density in data set [2] turned out to be 1.36 g/mL. For the same compound, the “Refractive Index” value in data set [3] was determined as 1.436.

The values are drawn from patent US8956445B2, “High stability diionic liquid salts” (Sigma-Aldrich Co., priority 2004, dated 2015).
